Experimental data as given in patent US20250127168A1, “METHOD FOR PATHOGENS, MICROORGANISMS, AND PARASITES INACTIVATION” (New York Blood Center, Inc., priority 2018, published 2025).

Columns and labels:
[1] = Neutralization of compound X by ethyl 2-mercaptoacetate (LCMS); assay type: physicochemical; conditions: PBS, RT; for Peak Areas (LCMS): 100 μM X + 10 mM ethyl 2-mercaptoacetate
Procedure: 100 μM solution of compound X in phosphate buffered saline was incubated at room temperature with 10 mM of ethyl-2-mercaptoacetate, and the change of the concentration of compound X, as well as the formation of the intermediate compound of neutralization (XXI) and the final compound of neutralization XXII was determined by LCMS analysis of the mixture. The reaction scheme of neutralization is presented below. The peak areas of compound X, intermediate neutralization product, Q1 (compound XXI) and final neutralization product, Q2 (compound XXII) are presented in the Table 8 below, and in FIG. 18.

[2] = test system: Plasmodium falciparum 3D7; assay: Inactivation of blood-borne parasites in fresh human red blood cells; assay type: cell-based; conditions: 250 μM, 24 hours, physiological temperature
Procedure: (§1) Inactivation of blood-borne parasites, Plasmodium falciparum 3D7 and Babesia divergens Rouen, was conducted in fresh human red blood cells for 24 hours at physiological temperature. […] Above six logs inactivation of Candida albicans, a representative of pathogenic fungi, and three logs inactivation of Tetrahymena thermophila, a model organism for ciliated protozoa, were achieved by compound XIV at 250 μM in their respective growth media.

[3] = test system: Babesia divergens Rouen; assay: as above; assay type: cell-based; conditions: 250 μM, 24 hours, physiological temperature
Procedure: as §1

[4] = test system: B. cereus; assay: Bacterial inactivation in Ringer's solution, colony agar plate count; assay type: cell-based; conditions: 100 μM, RT, 1 h treatment
Procedure: (§2) A panel of G+F and G-bacteria were inactivated in their respective growth medium using compound VI, compound X, and compound XIV. All cells were grown in corresponding media to middle log phase, collected by centrifugation, re-suspended in Ringer's solution (RS), and treated at RT with 100 μM of compound VI, compound X, and compound XIV, which were added to the suspension as 100× concentrate in RS. Controls received RS only. At the end of the incubation, unreacted compound VI, compound X, and compound XIV were neutralized with 10 mM sodium thiophosphate during incubation at RT for 30 min. The viable cells were enumerated using serial dilutions by standard colony agar plate count. Table 1 summarizes the typical results of 1 h treatment of E. coli, P. fluorescens, Y. enterocolitica, B. cereus, S. aureus, and S. epidermidis with compound VI, compound X, and compound XIV.

[5] = test system: P. fluorescens; assay: as above; assay type: cell-based; conditions: 100 μM, RT, 1 h treatment
Procedure: as §2

[6] = test system: S. epidermidis; assay: as above; assay type: cell-based; conditions: 100 μM, RT, 1 h treatment
Procedure: as §2

[7] = test system: Y. enterocolitica; assay: as above; assay type: cell-based; conditions: 100 μM, RT, 1 h treatment
Procedure: as §2

[8] = test system: E. coli; assay: as above; assay type: cell-based; conditions: 100 μM, RT, 1 h treatment
Procedure: as §2

[9] = test system: S. aureus; assay: as above; assay type: cell-based; conditions: 100 μM, RT, 1 h treatment
Procedure: as §2

[10] = test system: Candida albicans; assay: Fungal inactivation in growth media; assay type: cell-based; conditions: 250 μM
Procedure: as §1

[11] = test system: Human respiratory syncytial virus (RSV); assay: Viral inactivation, modified plaque assay; assay type: cell-based; conditions: 6 h, Ringer's/Lactate solution
Procedure: Human respiratory syncytial virus (RSV) was inactivated by using Compound VI or Compound X. For that purpose, sucrose gradient-purified virus was treated with 100 μM of Compound VI and Compound X at RT. […] The virus titers were determined using standard 10× serial dilutions in a modified plaque assay. For mock-treated virus no significant changes in RSV infectivity were found even after 6 h incubation at RT (in different experiments, the reduction of titers were in the range of 0.11-0.36 Login PFU/mL).
Inactivation of RSV with different concentrations of Compound XVI at RT and 40° C. was performed as described in Example 9.

Compound	Peak Areas (LCMS) ([1]; Time 6 min)	Peak Areas (LCMS) ([1]; Time 14.5 min)	Peak Areas (LCMS) ([1]; Time 23.1 min)	Peak Areas (LCMS) ([1]; Time 31.6 min)	Peak Areas (LCMS) ([1]; Time 40.2 min)	Peak Areas (LCMS) ([1]; Time 48.7 min)	Peak Areas (LCMS) ([1]; Time 57.3 min)	Peak Areas (LCMS) ([1]; Time 65.8 min)	Peak Areas (LCMS) ([1]; Time 74.3 min)	Peak Areas (LCMS) ([1]; Time 82.9 min)	Peak Areas (LCMS) ([1]; Time 91.4 min)	Peak Areas (LCMS) ([1]; Time 100.0 min)	Peak Areas (LCMS) ([1]; Time 108.5 min)	Peak Areas (LCMS) ([1]; Time 117.1 min)	Peak Areas (LCMS) ([1]; Time 125.6 min)	other results
CCOC(=O)CSCCNCCCN(C)CCCN(C)CCCCN(C)CCCN1CC1 [XXI]	181.6	307	363.5	375.8	390.1	368.5	338.6	331.1	306.5	268.6	256	227.8	202.2	195	174	first order rate constant of concentration decrease ([1]; 10 mM ethyl 2-mercaptoacetate): 0.026 min⁻¹
CN(CCCCN(C)CCCN(C)CCCN1CC1)CCCN(C)CCCN1CC1 [Compound XIV]																reduction of the number of viable plasmodium organisms [2]: ≥ 7 logs; reduction of the number of viable babesia [3]: 8 logs; Titer [4]: ≤1.00 Log10CFU/mL; Titer [5]: ≤1.00 Log10CFU/mL; Titer [6]: 6.32 Log10CFU/mL; Titer [7]: 5.04 Log10CFU/mL; Titer [8]: 3.51 Log10CFU/mL; Titer [9]: 5.08 Log10CFU/mL; inactivation of Candida albicans [10]: Above six
CN(CCCN1CC1)CCCN1CC1 [Compound XVI, 3-(aziridin-1-yl)-N-(3-(aziridin-1-yl)propyl)-N-methylpropan-1-amine]																RSV Inactivation (difference between TO titer and titer) ([11]; 40° C., 100 μM): >6.48 Log10 PFU/mL; RSV titer ([11]; 40° C., 100 μM): <0.52 Log10 PFU/mL; RSV Inactivation (difference between TO titer and titer) ([11]; 40° C., 250 μM): >6.48 Log10 PFU/mL; RSV titer ([11]; 40° C., 250 μM): <0.52 Log10 PFU/mL; RSV Inactivation (difference between TO titer and titer) ([11]; 40° C., 500 μM): >6.48 Log10 PFU/mL; RSV titer ([11]; 40° C., 500 μM): <0.52 Log10 PFU/mL; RSV Inactivation (difference between TO titer and titer) ([11]; RT, 100 μM): 5.02 Log10 PFU/mL; RSV titer ([11]; RT, 100 μM): 1.98 Log10 PFU/mL; RSV Inactivation (difference between TO titer and titer) ([11]; RT, 250 μM): 5.50 Log10 PFU/mL; RSV titer ([11]; RT, 250 μM): 1.50 Log10 PFU/mL; RSV Inactivation (difference between TO titer and titer) ([11]; RT, 500 μM): >6.48 Log10 PFU/mL; RSV titer ([11]; RT, 500 μM): <0.52 Log10 PFU/mL
CCOC(=O)CSCCNCCCN(C)CCCCN(C)CCCN(C)CCCNCCSCC(=O)OCC [XXII]	48.7	131.9	214.4	280.7	349.3	397.1	424.3	479.4	489.3	498.6	513.2	527	520.5	548.8	536.5	
